For data set [1], the system named is Plasmodium falciparum. Kind of data set: Hit confirmation in dose-response curve in Dd2 pLDH assay, at 72h. It is filed as functional, organism-based. On the set-up: timepoint 72 hour. As to conditions: Dd2, Erythrocyte.
Data set [2] has as its system Plasmodium falciparum. Briefly: Hit confirmation in dose-response curve in NF54 pLDH assay, at 72h. The class given is functional, organism-based. On the set-up: timepoint 72 hour. As to conditions: NF54, Erythrocyte.
Data set [3] in a line: Hit confirmation in dose-response curve in HepG2 cytotoxicity assay, at 72h. On the set-up: timepoint 72 hour. The class given is toxicity, cell-based. The note with it: human, HepG2 cells.
Data set [4] deals with Plasmodium falciparum. Kind of data set: Re-testing in dose-response curve in 3D7 pLDH assay, at 72h. The class given is functional, organism-based. Further details: timepoint 72 hour. The note with it: 3D7, Erythrocyte.
The test system of data set [5] is Plasmodium falciparum. Kind of data set: Hit confirmation in dose-response curve in NF54 nanoGlo assay, at 12h. The class given is functional, organism-based, Erythrocyte. Further details: timepoint 12 hour. As to conditions: Plasmodium falciparum, NF54, Erythrocyte, 12 h.
For data set [6], the system named is Plasmodium falciparum. Briefly: Hit confirmation in dose-response curve in NF54 nanoGlo assay, at 72h. It is filed as functional, organism-based, Erythrocyte. On the set-up: timepoint 72 hour. As to conditions: Plasmodium falciparum, NF54, Erythrocyte, 72 h.
Data set [7] is described as follows: Re-testing in dose-response curve in HepG2 cytotoxicity assay, at 72h. The note with it: human, HepG2 cells. Further details: timepoint 72 hour. It is filed as toxicity, cell-based.

Where only a bound is given, the exact number is not on record here.

One may read the IC50 as the concentration that gives 50% inhibition. The low end stands for higher potency, the high end for lower potency. As to `Clc1ccc(COc2ccc(Cl)cc2CNCCCn2ccnc2)c(Cl)c1`, the IC50 turned out to be 1.38 µM in the data set on Plasmodium falciparum [1]; 1.26 µM in the data set on Plasmodium falciparum [2]; 1.01 µM in the data set with Plasmodium falciparum [4]; 3.02 µM in the data set with Plasmodium falciparum [5]; 1.41 µM in the data set with Plasmodium falciparum [6]. Further, the values for the IC50 at 72 h in data set [3] and in data set [7] were greater than 10 µM and 6.11 µM, respectively.

Take `CCN1CCN(c2cccc(NC(=O)c3cc(F)cc4c(=O)c5cc(F)ccc5[nH]c34)c2)CC1`: the IC50 with Plasmodium falciparum [1] stood at 1.17 µM; with Plasmodium falciparum [2] it was 1.38 µM; in the data set on Plasmodium falciparum [4] it was 0.609 µM; in the data set on Plasmodium falciparum [5] it was 1.32 µM; in the data set with Plasmodium falciparum [6], 0.912 µM. The results for the IC50 at 72 h in data set [3] and in data set [7] were greater than 10 µM and 3.48 µM, respectively.

Consider `CC(C)c1cc(CN(Cc2cc(C(C)C)c(O)c(C(C)C)c2)C2CCCCC2)cc(C(C)C)c1O`, for which the IC50 in the data set on Plasmodium falciparum [1] was 0.1 µM; with Plasmodium falciparum [2] it was 0.151 µM; in the data set with Plasmodium falciparum [4], 0.113 µM; with Plasmodium falciparum [5], 0.631 µM; in the data set on Plasmodium falciparum [6], 0.1 µM. Moreover, the figures for the IC50 at 72 h in data set [3] and in data set [7] were greater than 10 µM and greater than 8.33 µM, respectively.

With `Cc1cnccc1NCCNCc1cccc(O)c1Cl`, the IC50 in the data set on Plasmodium falciparum [1] is 1.23 µM; in the data set with Plasmodium falciparum [2] it was 1.48 µM; with Plasmodium falciparum [4], 0.943 µM; in the data set on Plasmodium falciparum [5], greater than 10 µM; with Plasmodium falciparum [6], 1.12 µM. Also, the IC50 at 72 h in data set [3] was greater than 10 µM; in data set [7], greater than 25 µM.

Regarding `Clc1ccc(Cn2cc(CNCCCn3ccnc3)c3ccccc32)c(Cl)c1`, the IC50 in the data set with Plasmodium falciparum [1] is 1.17 µM; in the data set with Plasmodium falciparum [2], 0.562 µM; with Plasmodium falciparum [4], roughly 0.467 µM; in the data set on Plasmodium falciparum [5], 1.51 µM; with Plasmodium falciparum [6], 0.741 µM. The IC50 at 72 h in data set [3] is greater than 10 µM; in data set [7], 3.9 µM.

For `Cc1ccnc(Nc2ccc(N3CCNCC3)nn2)c1`, the IC50 worked out at 1.7 µM in the data set on Plasmodium falciparum [1]; 1.29 µM in the data set with Plasmodium falciparum [2]; 3 µM with Plasmodium falciparum [4]; 2.82 µM in the data set on Plasmodium falciparum [5]; 1.62 µM with Plasmodium falciparum [6]. For the same molecule, the IC50 at 72 h in data set [3] was greater than 10 µM; in data set [7], greater than 25 µM.

As to `CCc1ccc(C(=O)NCCCC2CCCC2O)cc1S(=O)(=O)N1CCOCC1` (configuration not stated), the IC50 was 0.977 µM in the data set on Plasmodium falciparum [1]; 4.37 µM in the data set with Plasmodium falciparum [2]; 2.49 µM with Plasmodium falciparum [4]; greater than 10 µM in the data set on Plasmodium falciparum [5]; 1.91 µM in the data set with Plasmodium falciparum [6]. Also, the IC50 at 72 h in data set [3] is greater than 10 µM; in data set [7], greater than 25 µM.

For the molecule `COc1ccc(-c2cc(C(=O)N[C@H]3CCN(c4ccc(=O)[nH]n4)C3)c(C)n2C)cc1`, the IC50 was 0.871 µM in the data set with Plasmodium falciparum [1]; 2.04 µM with Plasmodium falciparum [2]; 0.289 µM in the data set on Plasmodium falciparum [4]; greater than 10 µM in the data set on Plasmodium falciparum [5]; 0.501 µM in the data set on Plasmodium falciparum [6]. Besides, the results for the IC50 at 72 h in data set [3] and in data set [7] were greater than 10 µM and greater than 25 µM, respectively.

As to `CN(C)Cc1ccc(NC(=O)c2cc(F)cc3c(=O)c4cc(F)ccc4[nH]c23)cc1`, the IC50 was 0.708 µM in the data set on Plasmodium falciparum [1]; 1.2 µM with Plasmodium falciparum [2]; roughly 0.377 µM in the data set on Plasmodium falciparum [4]; greater than 10 µM in the data set on Plasmodium falciparum [5]; 0.525 µM in the data set on Plasmodium falciparum [6]. Also, the results for the IC50 at 72 h in data set [3] and in data set [7] were greater than 10 µM and 2.86 µM, respectively.

For `O=C(CN1CCC[C@H]1C1CCCC1)NCC1CCCCC1`, the IC50 with Plasmodium falciparum [1] was 1.66 µM; in the data set on Plasmodium falciparum [2] it was 3.02 µM; with Plasmodium falciparum [4], 2.07 µM; in the data set with Plasmodium falciparum [5], greater than 10 µM; with Plasmodium falciparum [6], 3.8 µM. Also, the IC50 at 72 h in data set [3] is greater than 10 µM; in data set [7] it was greater than 25 µM.

Turning to `CC1(C)OCc2cc(CNc3ccc4oc(=O)[nH]c4c3)ccc2O1`, the IC50 worked out at 0.661 µM with Plasmodium falciparum [1]; 0.759 µM with Plasmodium falciparum [2]; 0.267 µM in the data set with Plasmodium falciparum [4]; 0.851 µM in the data set with Plasmodium falciparum [5]; 0.55 µM with Plasmodium falciparum [6]. For the same molecule, the IC50 at 72 h was greater than 10 µM in data set [3] and 20.4 µM in data set [7].

As to `Oc1ccccc1CCN[C@H]1CCc2ccc(F)cc21`, the IC50 in the data set on Plasmodium falciparum [1] came out at 0.269 µM; in the data set on Plasmodium falciparum [2], 0.309 µM; in the data set with Plasmodium falciparum [4], 0.429 µM; in the data set on Plasmodium falciparum [5], 0.257 µM; with Plasmodium falciparum [6] it was 0.195 µM. The figures for the IC50 at 72 h in data set [3] and in data set [7] were greater than 10 µM and greater than 25 µM, respectively.

For `Cc1cc(NC(=O)C(=O)NC2CC(C)CC(C)(C)C2)n(-c2nc3c(c(=O)[nH]2)CCC3)n1` (configuration not stated), the IC50 in the data set with Plasmodium falciparum [1] is 1.78 µM; with Plasmodium falciparum [2], 2.09 µM; with Plasmodium falciparum [4], 0.392 µM; in the data set on Plasmodium falciparum [5], greater than 10 µM; in the data set on Plasmodium falciparum [6], 1.15 µM. The IC50 at 72 h in data set [3] was greater than 10 µM; in data set [7], 0.118 µM.

Regarding `CCOc1cccc(-c2ccc3nc(-c4cccc(OC)c4)c(CCC(=O)NCCN4CCCC4)n3c2)c1`, the IC50 was determined as 1.2 µM in the data set with Plasmodium falciparum [1]; 0.282 µM in the data set with Plasmodium falciparum [2]; 0.0548 µM in the data set with Plasmodium falciparum [4]; 7.24 µM in the data set on Plasmodium falciparum [5]; 0.309 µM in the data set on Plasmodium falciparum [6]. The IC50 at 72 h was greater than 10 µM in data set [3] and 15.9 µM in data set [7].

In the case of `C[C@H]1CCN(c2nc(-c3ccccn3)nc3c2CCC3)C1`, the IC50 amounted to 1.23 µM with Plasmodium falciparum [1]; 1.29 µM in the data set with Plasmodium falciparum [2]; 2.15 µM with Plasmodium falciparum [4]; 2.04 µM in the data set with Plasmodium falciparum [5]; 0.692 µM in the data set on Plasmodium falciparum [6]. For the same molecule, the IC50 at 72 h in data set [3] is greater than 10 µM; in data set [7], 4.75 µM.

On to `Cc1c([C@@H](NCc2ncccc2O)C(C)C)oc2ccccc12`, for which the IC50 in the data set with Plasmodium falciparum [1] was determined as 0.602 µM; in the data set with Plasmodium falciparum [2] it was 0.832 µM; in the data set on Plasmodium falciparum [4], 0.291 µM; in the data set with Plasmodium falciparum [5], 0.407 µM; with Plasmodium falciparum [6], 0.275 µM. In addition, the IC50 at 72 h in data set [3] is greater than 10 µM; in data set [7] it was greater than 25 µM.

As to `Nc1ncc(C(=O)N2CCC3(CCCCCC3)C2)s1`, the IC50 with Plasmodium falciparum [1] was determined as 1.12 µM; with Plasmodium falciparum [2] it was 0.871 µM; in the data set on Plasmodium falciparum [4], 0.575 µM; in the data set on Plasmodium falciparum [5], 1 µM; in the data set with Plasmodium falciparum [6], 0.832 µM. For the same molecule, the IC50 at 72 h in data set [3] was greater than 10 µM; in data set [7] it was greater than 25 µM.

For the molecule `C[C@H]1CCCN(c2nc(-c3ccccn3)nc3ccccc23)C1`, the IC50 with Plasmodium falciparum [1] worked out at 1.45 µM; in the data set on Plasmodium falciparum [2] it was 1.41 µM; in the data set on Plasmodium falciparum [4], 1.71 µM; in the data set on Plasmodium falciparum [5] it was 1.26 µM; with Plasmodium falciparum [6], 0.468 µM. For the same molecule, the figures for the IC50 at 72 h in data set [3] and in data set [7] were greater than 10 µM and 1.76 µM, respectively.

For `N#Cc1cc(S(=O)(=O)NCCN(C2CC2)S(=O)(=O)c2ccc(Cl)c(C#N)c2)ccc1Cl`, the IC50 in the data set with Plasmodium falciparum [1] amounted to 2 µM; in the data set with Plasmodium falciparum [2], 3.31 µM; in the data set on Plasmodium falciparum [4], 1.1 µM; in the data set on Plasmodium falciparum [5], 2.82 µM; with Plasmodium falciparum [6] it was 2.04 µM. In addition, the IC50 at 72 h in data set [3] was greater than 10 µM; in data set [7], 13.6 µM.

Turning to `CC(=O)N(C1CCN(Cc2ccccc2)CC1)C1(C(=O)Nc2ccc3[nH]ccc3c2)CCN(C)CC1`, the IC50 stood at 1.23 µM in the data set with Plasmodium falciparum [1]; 1.26 µM with Plasmodium falciparum [2]; 1.23 µM in the data set on Plasmodium falciparum [4]; 3.98 µM in the data set on Plasmodium falciparum [5]; 1.66 µM with Plasmodium falciparum [6]. Also, the figures for the IC50 at 72 h in data set [3] and in data set [7] were greater than 10 µM and greater than 25 µM, respectively.

On to `Cc1ccc(Nc2ccc(N3CCNCC3)nn2)nc1`, for which the IC50 in the data set with Plasmodium falciparum [1] worked out at 1.74 µM; in the data set with Plasmodium falciparum [2], 3.16 µM; with Plasmodium falciparum [4], 5.09 µM; in the data set on Plasmodium falciparum [5], 3.09 µM; in the data set with Plasmodium falciparum [6], 1.58 µM. Also, the IC50 at 72 h in data set [3] is greater than 10 µM; in data set [7], greater than 25 µM.
